The test system of one experiment is PC-3. The experiment can be described thus: Cell viability (MTS) anti-proliferative assay, PC-3. In kind it is cell-based. Particulars: PC-3 human prostate cancer, 48 h treatment, n = 4, read-out: IC50 values ± SEM, PC-3. The method, then: (§1) The anti-proliferative effect of UC-112 and its analogs were tested in human melanoma (A375, M14 and M14/LCC6MDR1) and human prostate cancer (PC-3) cell lines. All the cell lines were purchased from ATCC (American Type Culture Collection, Manassas, VA). The cancer cells were cultured using the supplemented cell culture medium as described before at 37°C in a humidified atmosphere containing 5% CO2. 5000 cells in logarithm growing phase were seeded overnight into each well of a 96-well plate. Then the cells were continuously incubated with sequential diluted compound solution (10 nM to 100 μM, 100 μl per well) in cell culture medium.

In a further experiment the test system is A375. Briefly: Cell viability (MTS) anti-proliferative assay, A375. Type of experiment: cell-based. Particulars: A-375, A375 human melanoma, 48 h treatment, n = 4, read-out: IC50 values ± SEM, A375. As to the method: as §1
Another experiment has as its system M14/LCC6MDR1. Briefly: Cell viability (MTS) anti-proliferative assay, multidrug-resistant M14/LCC6MDR1. In kind it is cell-based, human. Particulars: for IC50: Homo sapiens, 48 h, multidrug-resistant M14/LCC6MDR1 melanoma, 48 h treatment, MTS, n = 4, read-out: IC50 values ± SEM, M14/LCC6MDR1; for Resistance Index: IC50 on M14/LCC6MDR1 divided by IC50 on parental M14. The method, then: as §1

Experiment [1] deals with T1, survivin (Homo sapiens, UniProt O15392).
T1 construct: endogenous in cells; host or cells: A375 cells
T1 sequence (O15392 whole entry): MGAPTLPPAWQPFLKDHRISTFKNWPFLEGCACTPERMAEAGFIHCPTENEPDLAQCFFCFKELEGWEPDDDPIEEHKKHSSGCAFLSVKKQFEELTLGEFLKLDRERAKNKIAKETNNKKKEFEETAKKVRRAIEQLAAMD
Briefly: Western blotting of survivin level, A375 cells. In kind it is cell-based. The method, then:
(§2) Lysates of A375 cells treated by the compound solution for 24 h were used to determine the change of IAP protein levels through western blotting. Primary rabbit antibodies against survivin, XIAP, cIAP1, cIAP2, livin and GAPDH were purchased from Cell Signaling Technology, Inc. (Danvers, MA) and used according to manufacture instructions as reported previously. Protein lane intensities were quantified by ImageJ software (US National Institutes of Health, Bethesda, MD).
(In general: A western blot detects proteins with antibodies after separation by electrophoresis.)

The next experiment deals with M14. The experiment can be described thus: Cell viability (MTS) anti-proliferative assay, M14. Type of experiment: cell-based. To be noted: M14 human melanoma, 48 h treatment, n = 4, read-out: IC50 values ± SEM, M14. The method, then: as §1
Experiment [2] relates to other IAPs (XIAP, cIAP1, cIAP2, livin). Briefly: Western blotting of other IAP levels. Type of experiment: cell-based, human. Particulars: 24 h, A375 and PC-3 cells. As to the method: as §2
Experiment [3] addresses T1, survivin. Briefly: Western blotting of survivin level, PC-3 cells. Type of experiment: cell-based. Particulars: gradient increasing dose, 24 h.
The next experiment deals with NCI-60 cell lines. Briefly: NCI-60 cell line screening (SRB), whole panel. In kind it is cell-based, human. Particulars: one concentration, 10 μM. As to the method: Four compounds including the parental compound UC-112 were submitted to National Cancer Institute for its NCI-60 cell line screening, initially tested at one concentration (10 μM), and subsequently selected for full five concentration testing following the standard protocols disclosed by NCI [34]. In brief, cells were plated into 96 well micro-titer plates 24 h prior to the treatment of compound solution for 48 h, then the cell viability was read out through absorbance of sulforhodamine B (SRB) staining.

Another experiment has as its system caspase 3/7. The experiment can be described thus: Caspase 3/7 functional assay (Caspase-Glo 3/7). In kind it is cell-based, human. Particulars: 1 μM, 24 h, A375 or PC-3 cells, N = 3. The method, then: The caspase 3/7 activity of cancer cells treated by DMSO control or compound of interest was analyzed using Glo Caspase-Glo 3/7 kit from Promega Corporation (Madison, WI) as per manufacturer’s instructions in similar protocol as described before. The readings of relative luminescence unit were normalized by the cell viability read from the same well determined by compatible CytoTox-Fluor Cytotoxicity assay kit (Promega, WI).

`CCc1ccc(COCc2cc(CN3CCCC3)c(O)c3ncccc23)cc1` [4f, 5-(((4-ethylbenzyl)oxy)methyl)-7-(pyrrolidin-1-ylmethyl)quinolin-8-ol]: the IC50 came to 900 ± 100 nM in the experiment on PC-3, 900 ± 100 nM in the experiment on A375, 2700 ± 1000 nM in the experiment with M14/LCC6MDR1 and 900 ± 100 nM in the experiment with M14. In addition, the “Resistance Index” value in the experiment with M14/LCC6MDR1 worked out at 3.0. Moreover, the “IC50 values for survivin inhibition” value at survivin [1] (estimated from western blotting, A375 and PC-3 cells) is reported as “low nanomolar range”. Moreover, on survivin [1] (gradient increasing dose, 24 h, A375 cells), the “Effect on survivin level, A375” value is given as “dose-dependently suppressed survivin level”. Further, in experiment [2], the “Effect on levels of other IAPs” value is listed as “minimally affected”. Besides, the “Effect on survivin level, PC-3” value at survivin [3] is “dose-dependently suppressed survivin level”.
With `Oc1c(CN2CCCC2)cc(CSCc2ccccc2)c2cccnc12` [12a, 5-((benzylthio)methyl)-7-(pyrrolidin-1-ylmethyl)quinolin-8-ol], the IC50 in the experiment with PC-3 came out at 1100 ± 100 nM; in the experiment on A375, 1400 ± 300 nM; with M14/LCC6MDR1 it was 2900 ± 600 nM; in the experiment with M14 it was 1400 ± 200 nM. The “Activity in NCI-60 one-concentration screening” value with NCI-60 cell lines is reported as “good activity”. Besides, in the experiment on M14/LCC6MDR1, the “Resistance Index” value amounted to 2.1. Further, the “Caspase 3/7 activation relative to DMSO control group” value with caspase 3/7 was “up to 4 folds”.

Values taken from paper PMC4466525, “Design, Synthesis and Structure-Activity Relationship Studies of Novel Survivin Inhibitors with Potent Anti-Proliferative Properties” (PLoS ONE, 2015).
